Laboratory results taken from ChEMBL document CHEMBL5385964, “1,5-Disubstituted tetrazoles as PD-1/PD-L1 antagonists” (RSC Med Chem, 2024).
Activity calls are given as the source filed them. No cut-off for these calls is given here.

What was measured:
[1] = target: Programmed cell death protein 1/Programmed cell death 1 ligand 1 (Homo sapiens, UniProt Q15116+Q9NZQ7); assay: Antagonist activity at PD-1/PD-L1 interaction (unknown origin); type: protein-complex assay
[2] = target: Programmed cell death 1 ligand 1 (Homo sapiens) (UniProt Q9NZQ7); assay: Induction of human PD-L1 dimerization at 1:1 molar ratio of protein:compound by 1H NMR analysis
Chain of Programmed cell death 1 ligand 1 (Homo sapiens) (Q9NZQ7 whole entry): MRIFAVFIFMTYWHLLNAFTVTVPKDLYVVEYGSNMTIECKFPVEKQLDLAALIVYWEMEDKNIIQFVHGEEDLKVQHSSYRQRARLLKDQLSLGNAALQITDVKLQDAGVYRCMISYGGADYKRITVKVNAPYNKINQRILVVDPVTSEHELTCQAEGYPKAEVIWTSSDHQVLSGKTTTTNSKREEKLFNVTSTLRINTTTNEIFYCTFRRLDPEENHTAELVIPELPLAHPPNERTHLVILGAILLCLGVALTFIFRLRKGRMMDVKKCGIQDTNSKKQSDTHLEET

Chain of Programmed cell death protein 1/Programmed cell death 1 ligand 1 (Q15116 whole entry): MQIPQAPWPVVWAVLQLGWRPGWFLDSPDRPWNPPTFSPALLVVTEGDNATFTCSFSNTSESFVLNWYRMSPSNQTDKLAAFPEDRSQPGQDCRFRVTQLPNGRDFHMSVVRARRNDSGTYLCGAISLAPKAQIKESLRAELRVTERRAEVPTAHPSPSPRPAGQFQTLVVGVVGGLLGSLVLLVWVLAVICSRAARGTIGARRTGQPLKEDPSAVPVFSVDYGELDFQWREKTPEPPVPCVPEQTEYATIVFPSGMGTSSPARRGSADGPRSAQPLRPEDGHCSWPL
Chain of Programmed cell death protein 1/Programmed cell death 1 ligand 1 (Q9NZQ7 whole entry): as the sequence (Q9NZQ7 whole entry) above

SMILES | IC50 [1] [nM] | Activity [2]
COc1cc(/C=C2\CCc3c2cccc3-c2cccc3c2CC/C3=C\c2cc(CN[C@H](CO)C(=O)O)cc(OC)c2)cc(CN[C@@H](CO)C(=O)O)c1 | 2.9 | –
COCCNCc1ccc(C(F)(F)F)c(/C=C/c2cccc(-c3cccc(/C=C/c4cc(CN[C@@](C)(CO)C(=O)O)ccc4C(F)(F)F)c3C)c2Cl)c1 | 2.3 | –
CCNCc1nnnn1/C=C/c1cccc(-c2ccccc2)c1C | – | Active
Cc1c(/C=C/c2cc(CN[C@@H](CO)C(=O)O)ccc2C(F)(F)F)cccc1-c1ccc2c(c1)OCCO2 | 13 | –
Cc1c(/C=C/n2nnnc2CN2CCCOC2)cccc1-c1ccccc1 | – | Active
Cc1c(/C=C/n2nnnc2C(C)NCCCO)cccc1-c1ccc2c(c1)OCCO2 (stereo unspecified) | – | Active
